Measured values published in patent US12600724B2, “Indole alkaloid and preparation method and use thereof” (NANJING UNIVERSITY OF CHINESE MEDICINE, priority 2022, dated 2026).

Tests used:
primary DRG neuron = assay: Axon growth of primary DRG neurons (immunofluorescence, Neuro J); type: cell-based, C57BL/6J mice; conditions: 24 hours
Method: Diabetic peripheral neuropathy involved a sensory neuron first, and a main pathological change was axonal atrophy and degeneration, or even disappearance. […] Therefore, the compounds in the examples were added with the primary DRG neuron to incubate for a certain period of time, then the axon growth of the DRG neuron was detected by immunofluorescence, and an axon length was quantified by Neuro J, so as to evaluate the promotion effect of the compound on the axon growth of the peripheral sensory neuron.
Primary antibodies of mice anti-β-tubulin III used for fluorescent staining were purchased from Sigma Company, cell culture reagents were all purchased from Gibco Company, and DRG neuronal cells were taken from C57BL/6J mice. Specific experimental steps were as follows: fresh DRG of the C57 mice was extracted to digest into a single-cell suspension and then inoculated into a culture plate for adherent culture overnight, with vinblastine as a positive drug, the to-be-detected compounds S1 to S87 ([…]) synthesized in the above examples were given to incubate for 24 hours, then an original culture medium was removed, 4% paraformaldehyde was added into each well to fix for 15 minutes after PBS washing, the mixture was permeabilized with 0.3% TritonX-100 for 5 minutes and sealed at room temperature with 4% BSA for 1 hour, a primary antibody (1:1000) was incubated at 4° C. overnight, a goat anti-mouse fluorescent secondary antibody (1:300) was incubated at room temperature in the dark for 1 hour, and a sealed slide was imaged by a fluorescence microscope (Leica). According to the image, a total axon length of a single DRG neuron was tracked by a Neuro J plug-in in Image J software, and a multiple of the total axon length relative to that of the blank control group was calculated.

[1] = system: STZ-induced type-1 diabetes model mice; assay: 50% mechanical pain threshold (Von frey), type-1 diabetic peripheral neuropathy mice; type: in vivo, C57BL/6J mice; conditions: type-1 mice, S26 46.8 mg/kg/day intragastric, Mean ± SD, n = 6
Method: (§1) Type-1 diabetes mice: male 8-week-old C57BL/6J mice were purchased from Beijing Vital River Laboratory Animal Technology Co., Ltd. One week after adaptive feeding, STZ (150 mg/kg) was injected intraperitoneally, and one week later, tail vein blood collection was carried out for blood sugar detection, and the mice with random blood sugar greater than 16 mmol/L were selected. Six weeks after STZ injection, the mice were divided into a control group (non-diabetic mice), a model group (DPN mice) and a S26 administration group (46.8 mg/kg/day) respectively according to body weight and blood sugar, and administrated intragastrically for four weeks continuously. This experiment was based on a principle that claws of rodents would have a withdrawal reflex under mechanical stimulation. A Von frey tactile measuring set was purchased from Ugo Basile Company, and Von frey filaments could provide 0.008 g to 300 g of stimulating force, wherein a thickness of the filaments determined a magnitude of the stimulating force. Specific experimental method: filaments with proper thicknesses were selected to vertically stimulate a skin, and the stimulating force was adjusted by replacing the filaments, until the filaments were bent. One mouse was tested for 6 times to determine a threshold, and a 50% mechanical pain threshold of the mouse was calculated according to 50% threshold=(10^(Xf+k δ))/10000, which was detected weekly before and after administration respectively.

[2] = system: type-2 diabetes model db/db mice; assay: 50% mechanical pain threshold (Von frey), type-2 diabetes db/db mice; type: in vivo, BKS db/db mice; conditions: S26 46.8 mg/kg/day intragastric, Mean ± SD, n = 6
Method: as §1, with “Type-2” for “Type-1”, “18-week-old BKS db/db” for “8-week-old C57BL/6J”, “Jiangsu Gempharmatech Biotechnology” for “Beijing Vital River Laboratory Animal Technology”, “feeding,” for “feeding, STZ (150 mg/kg) was injected intraperitoneally, and one week later, tail vein blood collection was carried out for blood sugar detection, and the mice with random blood sugar greater than 16 mmol/L were selected. Six weeks after STZ injection,”, “(db/m” for “(non-diabetic”, “(db/db” for “(DPN”

[3] = system: diabetic foot ulcer rat model (STZ-induced diabetic rat); assay: Foot ulcer wound area of diabetic foot ulcer model rat; type: in vivo, Sprague Dawley rats; conditions: for Area of foot ulcer wound: DFU rats, S26 46.8 mg/kg/day intragastric, Mean ± SD, n = 6
Method: Diabetic foot ulcer (DFU) was the most common manifestation of diabetic foot, and was also a main cause of amputation of a diabetic patient. In this experiment, a certain area of wound was created on a foot back of the diabetic rat at one time to form a diabetic foot ulcer model, and then the compound S26 was administrated for treatment. The influence of the vinpocetine derivative S26 on the healing of the diabetic foot ulcer was evaluated by taking a photo of the wound and quantifying an area of the wound. […] Four weeks after STZ injection, an inhalation anesthesia machine was used to carry out isoflurane inhalation to induce anesthesia, and a complete round skin wound was created on a rear foot back of the diabetic rat through a disposable 5 mm skin biopsy punch and a Westcott scissor. After the establishment of the diabetic foot ulcer rat model, the rats were divided into a control group (non-diabetic rats), a model group (DFU rats) and a S26 administration group (46.8 mg/kg/day) respectively according to blood sugar and body weight, and administrated intragastrically for four weeks continuously. The foot ulcer wound of each rat was observed on day 0, day 3, day 7, day 14, day 21 and day 28 after administration, and photographed with a camera, and then the wound area was quantified by Image J software through scale conversion.

With `CC[C@@]12C=C(C(=O)NCC(=O)OCCOCCOCCOCCO)n3c4c(c5ccccc53)CCN(CCC1)[C@H]42` [Compound S26] the “Promotion of axon growth of the primary DRG neuron compared with the positive drug (in words)” value (primary DRG neuron; 10 μm) was “more outstanding effect”, the fold induction at 10 µM (primary DRG neuron; Mus musculus, multiple of total axon length of a single DRG neuron relative to blank control group) was 13.7 and the “50% mechanical pain threshold” value ([1]; week 0 of administration) was 1.51 ± 0.22^ g. For the same molecule, the “50% mechanical pain threshold” value ([1]; week 1 of administration) was 1.06 ± 0.34 g, the “50% mechanical pain threshold” value ([1]; week 2 of administration) was 0.92 ± 0.24 g and the “50% mechanical pain threshold” value ([1]; week 3 of administration) was 0.87 ± 0.15 g. For the same molecule, the “50% mechanical pain threshold” value ([1]; week 4 of administration) was 0.85 ± 0.23 g, the “50% mechanical pain threshold” value ([2]; week 0 of administration) was 1.33 ± 0.56^ g and the “50% mechanical pain threshold” value ([2]; week 1 of administration) was 1.04 ± 0.55^ g. For the same molecule, the “50% mechanical pain threshold” value ([2]; week 2 of administration) was 0.91 ± 0.37 g, the “50% mechanical pain threshold” value ([2]; week 3 of administration) was 0.72 ± 0.39 g and the “50% mechanical pain threshold” value ([2]; week 4 of administration) was 0.71 ± 0.42 g. For the same molecule, the “Area of foot ulcer wound” value ([3]; day 0 of administration) was 25.02 ± 2.85 mm^2, the “Area of foot ulcer wound” value ([3]; day 3 of administration) was 22.57 ± 2.76 mm^2 and the “Area of foot ulcer wound” value ([3]; day 7 of administration) was 11.83 ± 3.73^# mm^2. The “Area of foot ulcer wound” value ([3]; day 14 of administration) was 10.50 ± 2.01^## mm^2, the “Area of foot ulcer wound” value ([3]; day 21 of administration) was 8.78 ± 1.35^## mm^2 and the “Area of foot ulcer wound” value ([3]; day 28 of administration) was 6.02 ± 1.67^# mm^2. The “Area of the foot ulcer wound (in words, FIG. 2)” value ([3]; diabetic foot rat) was “obviously reduce”.
